Laboratory results taken from US20200281918A1, “CALCIUM RELEASE-ACTIVATED CALCIUM CHANNEL MODULATORS FOR TREATING HEMATOLOGICAL AND SOLID CANCERS” (Rhizen Pharmaceuticals SA, priority 2017, published 2020).

How the values were obtained:
A549 cells [1] = test: Induction of Caspase 3 (Millipore Caspase-3 kit, fluorimetric); assay type: cell-based; details: 48 hours, 10-10,000 nM (FIG. 1)
Description: (§1) NCH-H460, A549 and NCI-H1975 cells were incubated with desired concentrations of the test compound for 48 hours. An equal number of cells per well (0.3×10^6 cells) were used. The increase in apoptosis manifested by an elevation in caspase-3 levels was determined using a Caspase-3 kit from Millipore. Induction of Caspase 3 by Compound (A) was measured fluorimetrically.

NCH-H460 cells = test: as above; assay type: cell-based; details: 48 hours, 10-10,000 nM (FIG. 1)
Description: as §1

NCI-H1975 cells = test: as above; assay type: cell-based; details: 48 hours, 10-10,000 nM (FIG. 1)
Description: as §1

A549 cells [2] = test: Scratch-wound migration assay; assay type: cell-based; details: 10% FBS, 72 hours, 10-10,000 nM (FIG. 2)
Description: A scratch was made to a serum-starved monolayer of A549 cells followed by washing and incubation with a desired concentration of Compound (A) in media with 10% fetal bovine serum (FBS) for 72 hours. The distance between the two edges of the wound was measured and percent inhibition was calculated with respect to a control.

[3] = test system: normal lung cell line WI-38; test: Anti-proliferative effect (MTT assay); assay type: cell-based; details: WI-38, MTT, 48-72 hours
Description: (§2) A panel of cancer cell lines representing various different types of cancers were plated in 96-well plates and incubated with desired concentrations of Compound (A) for 48-72 hours. At the end of the incubation period, MTT ((3-(4,5-dimethylthiazol-2-yl)-2,5-diphenyltetrazolium bromide)) was added. The plates were placed on a shaker for 5 minutes to mix the formazan and the optical density at 560 nm was measured using a spectrophotometer. Data were plotted using Graphpad Prism for calculation of the GI50 concentrations.

[4] = test system: panel of cancer cell lines; test: Anti-proliferative effect (MTT assay); assay type: cell-based; details: majority of the cell lines tested, 48-72 hours, MTT (FIG. 3)
Description: as §2

769-P = test: Apoptosis (activated caspase-3 antibody) panel; assay type: cell-based
Description: (§3) An antibody to activated caspase-3 was used to label cells from early to late stage apoptosis. The concentration of Compound (A) that caused a 2-fold induction in the caspase-3 signal was determined, indicating a significant apoptosis induction.

786-O = test: Apoptosis (activated caspase-3 antibody) panel; assay type: cell-based
Description: as §3

A427 = test: Apoptosis (activated caspase-3 antibody) panel; assay type: cell-based
Description: as §3

A7 = test: Apoptosis (activated caspase-3 antibody) panel; assay type: cell-based
Description: as §3

ACHN = test: Apoptosis (activated caspase-3 antibody) panel; assay type: cell-based
Description: as §3

AGS = test: Apoptosis (activated caspase-3 antibody) panel; assay type: cell-based
Description: as §3

ARH-77 = test: Apoptosis (activated caspase-3 antibody) panel; assay type: cell-based
Description: as §3

AsPC-1 = test: Apoptosis (activated caspase-3 antibody) panel; assay type: cell-based
Description: as §3

C32 = test: Apoptosis (activated caspase-3 antibody) panel; assay type: cell-based
Description: as §3

Calu6 = test: Apoptosis (activated caspase-3 antibody) panel; assay type: cell-based
Description: as §3

DB = test: Apoptosis (activated caspase-3 antibody) panel; assay type: cell-based
Description: as §3

DOHH-2 = test: Apoptosis (activated caspase-3 antibody) panel; assay type: cell-based
Description: as §3

G-402 = test: Apoptosis (activated caspase-3 antibody) panel; assay type: cell-based
Description: as §3

HCT-116 = test: Apoptosis (activated caspase-3 antibody) panel; assay type: cell-based
Description: as §3

Hs 578T = test: Apoptosis (activated caspase-3 antibody) panel; assay type: cell-based
Description: as §3

MDA MB 231 = test: Apoptosis (activated caspase-3 antibody) panel; assay type: cell-based
Description: as §3

MDA MB 468 = test: Apoptosis (activated caspase-3 antibody) panel; assay type: cell-based
Description: as §3

NCI-H661 = test: Apoptosis (activated caspase-3 antibody) panel; assay type: cell-based
Description: as §3

PANC-1 = test: Apoptosis (activated caspase-3 antibody) panel; assay type: cell-based
Description: as §3

PC-3 = test: Apoptosis (activated caspase-3 antibody) panel; assay type: cell-based
Description: as §3

RD = test: Apoptosis (activated caspase-3 antibody) panel; assay type: cell-based
Description: as §3

RKO-AS45-1 = test: Apoptosis (activated caspase-3 antibody) panel; assay type: cell-based
Description: as §3

RKOE6 = test: Apoptosis (activated caspase-3 antibody) panel; assay type: cell-based
Description: as §3

SH-4 = test: Apoptosis (activated caspase-3 antibody) panel; assay type: cell-based
Description: as §3

SK-BR-3 = test: Apoptosis (activated caspase-3 antibody) panel; assay type: cell-based
Description: as §3

SKO-007 = test: Apoptosis (activated caspase-3 antibody) panel; assay type: cell-based
Description: as §3

SW1088 = test: Apoptosis (activated caspase-3 antibody) panel; assay type: cell-based
Description: as §3

T98G = test: Apoptosis (activated caspase-3 antibody) panel; assay type: cell-based
Description: as §3

U266B1 = test: Apoptosis (activated caspase-3 antibody) panel; assay type: cell-based
Description: as §3

Wi38 = test: Apoptosis (activated caspase-3 antibody) panel; assay type: cell-based
Description: as §3

NFkB = test: Western blotting of markers in Jurkat cells; assay type: cell-based; details: 24 hours, 10, 100, 1000 nM (FIG. 4)
Description: (§4) Cell lines were plated in RPMI media at a pre-determined density in a 6-well plate. After overnight incubation, cells were treated with Compound (A) for 24 hours. Cell lysates were analyzed for the expression of markers by Western Blotting. Gapdh, mTOR and S6 were used as a loading control for NFkB, phospho-mTOR, and phospho-S6 respectively. Lanes: A: Blank; B: 10 nM; C: 100 nM; D: 1000 nM.

phospho-S6 = test: Western blotting of markers in Jurkat cells; assay type: cell-based; details: 24 hours, 10, 100, 1000 nM (FIG. 4)
Description: as §4

phospho-mTOR = test: Western blotting of markers in Jurkat cells; assay type: cell-based; details: 24 hours, 10, 100, 1000 nM (FIG. 4)
Description: as §4

[5] = test system: NCI-H460 human non-small cell lung tumor xenografts; test: NCI-H460 human non-small cell lung cancer xenograft model; assay type: in vivo, female Balb/c nude mice
Description: (§5) The anti-tumor effect of Compound (A) was determined as a single agent in a NCI-H460 human non-small cell lung cancer xenografts model using female Balb/c nude mice. 10^6 cells were injected into the flank region. A week after tumor cell injection, mice either received the vehicle, oral administration of Compound (A) at 30 mg/kg BID or intravenous administration of taxol at 10 mg/kg Q3D (every three days) across a 15 day period. At the end of the study period, animals were sacrificed and the tumors harvested.

[6] = Body weight in NCI-H460 xenograft model; assay type: in vivo, female Balb/c nude mice; details: oral 30 mg/kg BID, 15 day period, Balb/c nude mice
Description: as §5

[7] = concentration causing 2-fold induction in caspase-3 signal

With O=C(Cc1ccc2ncccc2c1)Nc1ccc(-n2nc(C3CC3)cc2C2CC2)cc1 [Compound (A), N-(4-(3,5-dicyclopropyl-1H-pyrazol-1-yl)phenyl)-2-(quinolin-6-yl)acetamide] the caspase-3 induction (A549 cells [1]) was “dose-dependent increase”, the caspase-3 induction (NCH-H460 cells) was “dose-dependent increase” and the caspase-3 induction (NCI-H1975 cells) was “dose-dependent increase”. The “FBS induced migration of A549 cells” value (A549 cells [2]) was “dose-dependent reduction”, the “growth of normal lung cell line WI-38” value [3] was “did not affect growth” and the GI50 [4] was 300 to 3000 nM. The “Apoptosis Emax” value (769-P) was 10.3, the “G1/S cell cycle block” value (769-P) was 4.82 µM and the “Apoptosis 2 Fold Induction” value (769-P; [7]) was 24.71 µM. The “Apoptosis Emax” value (786-O) was 4.67, the “G1/S cell cycle block” value (786-O) was 4.4 µM and the “Apoptosis 2 Fold Induction” value (786-O; [7]) was 10.31 µM. For the same compound, the “Apoptosis Emax” value (A427) was 16.1, the “G1/S cell cycle block” value (A427) was 3.52 µM and the “Apoptosis 2 Fold Induction” value (A427; [7]) was 2.77 µM. For the same compound, the “Apoptosis Emax” value (A7) was 55.74, the “G1/S cell cycle block” value (A7) was 2.78 µM and the “Apoptosis 2 Fold Induction” value (A7; [7]) was 2.22 µM. For the same compound, the “Apoptosis Emax” value (ACHN) was 2.86, the “G1/S cell cycle block” value (ACHN) was 10.3 µM and the “Apoptosis 2 Fold Induction” value (ACHN; [7]) was 11.23 µM. The “Apoptosis Emax” value (AGS) was 26.62, the “G1/S cell cycle block” value (AGS) was 3.16 µM and the “Apoptosis 2 Fold Induction” value (AGS; [7]) was 5.04 µM. For the same compound, the “Apoptosis Emax” value (ARH-77) was 5.36, the “G1/S cell cycle block” value (ARH-77) was 7.02 µM and the “Apoptosis 2 Fold Induction” value (ARH-77; [7]) was 30.74 µM. For the same compound, the “Apoptosis Emax” value (AsPC-1) was 2.07, the “G1/S cell cycle block” value (AsPC-1) was 3.64 µM and the “Apoptosis Emax” value (C32) was 4.7. The “G1/S cell cycle block” value (C32) was 10.7 µM, the “Apoptosis 2 Fold Induction” value (C32; [7]) was 80.52 µM and the “Apoptosis Emax” value (Calu6) was 3.34. For the same compound, the “G1/S cell cycle block” value (Calu6) was 10.5 µM, the “Apoptosis 2 Fold Induction” value (Calu6; [7]) was 3.73 µM and the “Apoptosis Emax” value (DB) was 16.8. For the same compound, the “G1/S cell cycle block” value (DB) was 7.03 µM, the “Apoptosis 2 Fold Induction” value (DB; [7]) was 4.08 µM and the “Apoptosis Emax” value (DOHH-2) was 6.13. The “G1/S cell cycle block” value (DOHH-2) was 3.23 µM, the “Apoptosis 2 Fold Induction” value (DOHH-2; [7]) was 3.03 µM and the “Apoptosis Emax” value (G-402) was 5.14. For the same compound, the “G1/S cell cycle block” value (G-402) was 3.74 µM, the “Apoptosis 2 Fold Induction” value (G-402; [7]) was 3.11 µM and the “Apoptosis Emax” value (HCT-116) was 20.36. The “G1/S cell cycle block” value (HCT-116) was 1.89 µM, the “Apoptosis 2 Fold Induction” value (HCT-116; [7]) was 2.97 µM and the “Apoptosis Emax” value (Hs 578T) was 1.19. For the same compound, the “G1/S cell cycle block” value (Hs 578T) was 4.56 µM, the “Apoptosis Emax” value (MDA MB 231) was 4.35 and the “Apoptosis 2 Fold Induction” value (MDA MB 231; [7]) was 18.4 µM. For the same compound, the “Apoptosis Emax” value (MDA MB 468) was 8.86, the “G1/S cell cycle block” value (MDA MB 468) was 7.81 µM and the “Apoptosis 2 Fold Induction” value (MDA MB 468; [7]) was 3.02 µM. The “Apoptosis Emax” value (NCI-H661) was 13.23, the “G1/S cell cycle block” value (NCI-H661) was 2.8 µM and the “Apoptosis 2 Fold Induction” value (NCI-H661; [7]) was 17.64 µM. The “Apoptosis Emax” value (PANC-1) was 11.49, the “G1/S cell cycle block” value (PANC-1) was 7.32 µM and the “Apoptosis 2 Fold Induction” value (PANC-1; [7]) was 8.83 µM. For the same compound, the “Apoptosis Emax” value (PC-3) was 12.31, the “G1/S cell cycle block” value (PC-3) was 8.13 µM and the “Apoptosis 2 Fold Induction” value (PC-3; [7]) was 2.05 µM. For the same compound, the “Apoptosis Emax” value (RD) was 3.03, the “G1/S cell cycle block” value (RD) was 7.08 µM and the “Apoptosis 2 Fold Induction” value (RD; [7]) was 11.45 µM. For the same compound, the “Apoptosis Emax” value (RKO-AS45-1) was 40.99, the “G1/S cell cycle block” value (RKO-AS45-1) was 3.94 µM and the “Apoptosis 2 Fold Induction” value (RKO-AS45-1; [7]) was 3.15 µM. The “Apoptosis Emax” value (RKOE6) was 14.43, the “G1/S cell cycle block” value (RKOE6) was 4.85 µM and the “Apoptosis 2 Fold Induction” value (RKOE6; [7]) was 4.64 µM. The “Apoptosis Emax” value (SH-4) was 72.67, the “G1/S cell cycle block” value (SH-4) was 16.6 µM and the “Apoptosis 2 Fold Induction” value (SH-4; [7]) was 15.59 µM. The “Apoptosis Emax” value (SK-BR-3) was 8.32, the “G1/S cell cycle block” value (SK-BR-3) was 6.11 µM and the “Apoptosis 2 Fold Induction” value (SK-BR-3; [7]) was 11.6 µM. The “Apoptosis Emax” value (SKO-007) was 15.45, the “G1/S cell cycle block” value (SKO-007) was 5.2 µM and the “Apoptosis 2 Fold Induction” value (SKO-007; [7]) was 6.42 µM. For the same compound, the “Apoptosis Emax” value (SW1088) was 8.54, the “G1/S cell cycle block” value (SW1088) was 33 µM and the “Apoptosis 2 Fold Induction” value (SW1088; [7]) was 75.51 µM. For the same compound, the “Apoptosis Emax” value (T98G) was 21.74, the “G1/S cell cycle block” value (T98G) was 41.3 µM and the “Apoptosis 2 Fold Induction” value (T98G; [7]) was 53.96 µM. The “Apoptosis Emax” value (U266B1) was 4.88, the “G1/S cell cycle block” value (U266B1) was 3.56 µM and the “Apoptosis 2 Fold Induction” value (U266B1; [7]) was 11.11 µM. For the same compound, the “Apoptosis Emax” value (Wi38) was 0.49, the “G1/S cell cycle block” value (Wi38) was 8.82 µM and the “NFkB expression (Western blot)” value (NFkB) was “dose-dependent reduction”. For the same compound, the “phospho-S6 expression (Western blot)” value (phospho-S6) was “dose-dependent reduction”, the “phospho-mTOR expression (Western blot)” value (phospho-mTOR) was “dose-dependent reduction” and the “tumor growth inhibition (TGI) value” ([5]; day 15, oral 30 mg/kg BID) was 38.3%. The “inhibition of tumor growth” value ([5]; oral 30 mg/kg BID, 15 day period) was “significant inhibition of tumor growth” and the mice body weight [6] was “did not affect the mice body weight”.
With CC(=O)O[C@H]1C(=O)[C@@]2(C)[C@H]([C@H](OC(=O)c3ccccc3)[C@]3(O)C[C@H](OC(=O)[C@H](O)[C@@H](NC(=O)c4ccccc4)c4ccccc4)C(C)=C1C3(C)C)[C@]1(OC(C)=O)CO[C@@H]1C[C@@H]2O [taxol, reference compound] the “tumor growth inhibition (TGI) value” ([5]; day 15, intravenous 10 mg/kg Q3D) was 36.7%.
